From the NIST ThermoML archive (doi:10.1016/j.tca.2015.02.020)
± gives the expanded uncertainty stated by the source.

Experiment: molar heat capacity at constant pressure; xn = mol fraction of the nth substance listed
Settings: 101 kPa, Small sample (50 mg) DSC

CC(O)CN (stereo unspecified) [1-amino-2-propanol] + O
Settings	molar heat capacity at constant pressure [J/K/mol]
126.79 K, Glass, x1 = 0.15	27.11 ± 5.3
126.79 K, Glass, x1 = 0.16	28.24 ± 5.7
126.94 K, Glass, x1 = 0.19	28.86 ± 5.8
127.55 K, Glass, x1 = 0.19	28.57 ± 1.2
127.56 K, Glass, x1 = 0.26	32.53 ± 1.3
127.57 K, Glass, x1 = 0.26	32.86 ± 6.6
127.69 K, Glass, x1 = 0.15	27.64 ± 1.1
127.71 K, Glass, x1 = 0.16	27.96 ± 1.1
127.73 K, Glass, x1 = 0.68	51.16 ± 2.3
127.76 K, Glass, x1 = 0.68	51.16 ± 10
130.83 K, Glass, x1 = 0.19	29.15 ± 1.2
130.83 K, Glass, x1 = 0.26	33.19 ± 1.3
130.96 K, Glass, x1 = 0.15	28.71 ± 1.3
130.98 K, Glass, x1 = 0.16	28.51 ± 1.4
131 K, Glass, x1 = 0.68	52.86 ± 2.3
131.45 K, Glass, x1 = 0.15	28.71 ± 5.8
131.45 K, Glass, x1 = 0.16	30.14 ± 6
131.61 K, Glass, x1 = 0.19	30.31 ± 6.1
132.23 K, Glass, x1 = 0.26	34.17 ± 6.9
132.42 K, Glass, x1 = 0.68	52.29 ± 10
134.1 K, Glass, x1 = 0.19	29.73 ± 1.2
134.1 K, Glass, x1 = 0.26	33.85 ± 1.3
134.24 K, Glass, x1 = 0.15	29.5 ± 1.3
134.25 K, Glass, x1 = 0.16	29.05 ± 1.4
134.27 K, Glass, x1 = 0.68	54 ± 2.3
136.13 K, Glass, x1 = 0.15	30.3 ± 6.1
136.13 K, Glass, x1 = 0.16	31.77 ± 6.2
136.28 K, Glass, x1 = 0.19	32.04 ± 6.3
136.9 K, Glass, x1 = 0.26	35.49 ± 7.2
137.09 K, Glass, x1 = 0.68	54.57 ± 11
140.66 K, Glass, x1 = 0.19	31.17 ± 1.4
140.66 K, Glass, x1 = 0.26	35.49 ± 1.6
140.8 K, Glass, x1 = 0.15	30.83 ± 1.3
140.8 K, Glass, x1 = 0.16	33.39 ± 6.8
140.81 K, Glass, x1 = 0.15	31.63 ± 6.4
140.81 K, Glass, x1 = 0.16	30.41 ± 1.4
140.83 K, Glass, x1 = 0.68	56.27 ± 2.3
140.96 K, Glass, x1 = 0.19	32.9 ± 6.6
141.59 K, Glass, x1 = 0.26	36.8 ± 7.2
141.77 K, Glass, x1 = 0.68	55.7 ± 11
143.95 K, Glass, x1 = 0.19	31.75 ± 1.4
143.95 K, Glass, x1 = 0.26	36.15 ± 1.6
144.09 K, Glass, x1 = 0.15	31.63 ± 1.3
144.1 K, Glass, x1 = 0.16	30.95 ± 1.4
144.11 K, Glass, x1 = 0.68	57.41 ± 2.3
145.5 K, Glass, x1 = 0.16	34.75 ± 7.1
145.65 K, Glass, x1 = 0.19	34.35 ± 6.9
146.28 K, Glass, x1 = 0.26	38.12 ± 7.6
146.29 K, Glass, x1 = 0.15	33.22 ± 6.6
146.45 K, Glass, x1 = 0.68	56.84 ± 11
150.19 K, Glass, x1 = 0.16	36.11 ± 7.3
150.34 K, Glass, x1 = 0.19	35.5 ± 7.2
150.53 K, Glass, x1 = 0.19	33.48 ± 1.4
150.53 K, Glass, x1 = 0.26	38.12 ± 1.6
150.67 K, Glass, x1 = 0.15	33.22 ± 1.3
150.68 K, Glass, x1 = 0.16	32.31 ± 1.4
150.69 K, Glass, x1 = 0.68	59.68 ± 2.3
150.97 K, Glass, x1 = 0.26	39.1 ± 7.9
150.99 K, Glass, x1 = 0.15	34.29 ± 6.9
151.15 K, Glass, x1 = 0.68	57.98 ± 11
153.82 K, Glass, x1 = 0.19	34.06 ± 1.4
153.82 K, Glass, x1 = 0.26	39.1 ± 1.6
153.96 K, Glass, x1 = 0.15	34.02 ± 1.6
153.98 K, Glass, x1 = 0.16	33.12 ± 1.4
153.98 K, Glass, x1 = 0.68	60.82 ± 2.8
155.68 K, Glass, x1 = 0.15	35.88 ± 7.2
155.68 K, Glass, x1 = 0.16	37.74 ± 7.6
155.68 K, Glass, x1 = 0.19	36.94 ± 7.5
155.68 K, Glass, x1 = 0.26	40.42 ± 8.2
155.84 K, Glass, x1 = 0.68	59.11 ± 12
160.38 K, Glass, x1 = 0.16	40.45 ± 8.1
160.38 K, Glass, x1 = 0.19	38.97 ± 7.8
160.38 K, Glass, x1 = 0.26	42.39 ± 8.5
160.4 K, Glass, x1 = 0.15	39.07 ± 7.7
160.41 K, Glass, x1 = 0.19	35.79 ± 1.4
160.41 K, Glass, x1 = 0.26	41.07 ± 1.6
160.54 K, Glass, x1 = 0.68	60.82 ± 12
160.55 K, Glass, x1 = 0.15	35.88 ± 1.6
160.56 K, Glass, x1 = 0.16	34.48 ± 1.4
160.57 K, Glass, x1 = 0.68	63.09 ± 2.8
163.7 K, Glass, x1 = 0.19	36.66 ± 1.4
163.7 K, Glass, x1 = 0.26	42.39 ± 2
163.84 K, Glass, x1 = 0.15	37.74 ± 1.6
163.85 K, Glass, x1 = 0.16	35.57 ± 1.6
163.85 K, Glass, x1 = 0.68	64.8 ± 2.8
165.08 K, Glass, x1 = 0.19	42.72 ± 8.7
165.08 K, Glass, x1 = 0.26	45.68 ± 9.2
165.25 K, Glass, x1 = 0.68	64.8 ± 13
170.29 K, Glass, x1 = 0.19	40.7 ± 1.7
170.3 K, Glass, x1 = 0.26	46 ± 2
170.45 K, Glass, x1 = 0.68	68.21 ± 2.8
173.75 K, Glass, x1 = 0.68	73.89 ± 3.4
183.93 K, Liquid, x1 = 0.26	85.44 ± 17
184.09 K, Liquid, x1 = 0.68	124.48 ± 25
188.66 K, Liquid, x1 = 0.26	85.11 ± 17
188.82 K, Liquid, x1 = 0.68	125.62 ± 25
190.11 K, Liquid, x1 = 0.19	83.13 ± 3.5
190.11 K, Liquid, x1 = 0.26	88.06 ± 3.6
190.26 K, Liquid, x1 = 0.15	76.81 ± 3.2
190.26 K, Liquid, x1 = 0.68	135.28 ± 5.7
190.27 K, Liquid, x1 = 0.16	77.92 ± 3.3
193.38 K, Liquid, x1 = 0.26	84.78 ± 17
193.42 K, Liquid, x1 = 0.19	81.97 ± 3.5
193.42 K, Liquid, x1 = 0.26	87.74 ± 3.6
193.54 K, Liquid, x1 = 0.68	126.75 ± 26
193.57 K, Liquid, x1 = 0.15	76.28 ± 3.2
193.58 K, Liquid, x1 = 0.16	77.11 ± 3.3
193.58 K, Liquid, x1 = 0.68	135.28 ± 5.7
198.11 K, Liquid, x1 = 0.16	79.01 ± 16
198.11 K, Liquid, x1 = 0.26	84.78 ± 17
198.13 K, Liquid, x1 = 0.15	73.89 ± 15
198.27 K, Liquid, x1 = 0.68	126.75 ± 26
200.05 K, Liquid, x1 = 0.19	80.53 ± 3.5
200.05 K, Liquid, x1 = 0.26	87.74 ± 3.6
200.19 K, Liquid, x1 = 0.15	76.02 ± 3.2
200.19 K, Liquid, x1 = 0.68	136.41 ± 5.7
200.2 K, Liquid, x1 = 0.16	76.29 ± 3.3
202.84 K, Liquid, x1 = 0.19	80.53 ± 16
202.84 K, Liquid, x1 = 0.26	85.44 ± 17
202.85 K, Liquid, x1 = 0.16	79.28 ± 16
202.87 K, Liquid, x1 = 0.15	74.69 ± 15
203 K, Liquid, x1 = 0.68	126.75 ± 26
203.35 K, Liquid, x1 = 0.19	80.24 ± 3.5
203.36 K, Liquid, x1 = 0.26	88.06 ± 3.6
203.5 K, Liquid, x1 = 0.15	75.75 ± 3.2
203.5 K, Liquid, x1 = 0.68	136.98 ± 5.7
203.51 K, Liquid, x1 = 0.16	76.29 ± 3.3
207.57 K, Liquid, x1 = 0.19	80.82 ± 16
207.57 K, Liquid, x1 = 0.26	86.42 ± 17
207.58 K, Liquid, x1 = 0.16	79.82 ± 16
207.6 K, Liquid, x1 = 0.15	75.49 ± 15
